Assay results as given in article PMC9321930, “Modelling the Human Blood–Brain Barrier in Huntington Disease” (International Journal of Molecular Sciences, 2022).
Where two headings read alike, the source gives them in different places. Each block holds one molecule with its values, some of them ahead of it.

Legend:
[1] = Table S4; cited from earlier work
[2] = Transport assay (permeability) across iBMEC_33Q transwell BBB model; details: female, human
[3] = Transport assay (permeability) across iBMEC_109Q transwell BBB model; details: female, human
[4] = Transport assay (permeability) across iBMEC_71Q transwell BBB model; details: female, human
iBMEC_33Q [5] = tested on: iBMEC_33Q
iBMEC_71Q [6] = tested on: iBMEC_71Q
iBMEC_109Q [7] = tested on: iBMEC_109Q
all iBMECs = assay: Inhibition of substrate transport by transporter inhibitors, all iBMECs; type: cell-based, human
Method: (§1) The measurement of TEER, transport studies, and the derivation of permeability coefficients were carried out as reported. In each filter, a paracellular marker (radiolabelled sucrose or LY) was added as internal control of the tightness of the monolayer. The amounts of radiotracer and fluorescent tracers were determined by liquid scintillation (Top Count-NXT, Microplate Scintillation and Luminescence counter from Perkin Elmer, Milan, Italy) and fluorescence spectrophotometry (SAFIRE TECAN, Microplate Fluorescence reader, Männedorf, Switzerland), respectively. In efflux and influx transport assays, before the addition of the compounds, filters were pre-incubated for 15 min at 37 °C with or without inhibitors and/or substrates: 2 µM elacridar (PGP inhibition), 2 µM of KO143 (BCRP inhibition), 10 µM JPH203 (LAT-1 inhibition), and 200 µM of phloretin (GLUT inhibition). Each test compound was assayed in triplicates. Transferrin from Human Serum, Alexa Fluor™ 594 Conjugate (T13343 Invitrogen™ from Thermo Fisher, Monza, Italy) was incubated (2.5 µM) in HBSS-20 mM Hepes pH 7.4 containing 1% BSA for 2 h, at 37 °C, and 5% CO2 and on ice at 4 °C. At the end of the incubation, aliquots from both compartments were collected and the fluorescent tracer was quantified.

iBMEC_33Q [8] = assay: Transport assay (permeability) across iBMEC_33Q transwell BBB model; details: for Permeability iBMEC_33Q: Table 1, compound alone, mean ± SE, n > 6, compounds marked ^a calculated from Ptotal
iBMEC_109Q [9] = assay: Transport assay (permeability) across iBMEC_109Q transwell BBB model; details: for Permeability iBMEC_109Q: Table 1, compound alone, mean ± SE, n > 6, compounds marked ^a calculated from Ptotal
iBMEC_71Q [10] = assay: Transport assay (permeability) across iBMEC_71Q transwell BBB model; details: for Permeability iBMEC_71Q: Table 1, compound alone, mean ± SE, n > 6, compounds marked ^a calculated from Ptotal
iBMECs 33Q = assay: Receptor-mediated transcytosis of fluorescent transferrin, iBMEC 33Q; type: in vitro ADME, human; details: basal compartment after 2 h, 2.5 µM, mean ± sd
Method: as §1

iBMECs 109Q = assay: Receptor-mediated transcytosis of fluorescent transferrin, iBMEC 109Q; type: in vitro ADME, human; details: for Transferrin transported: 109Q, basal compartment after 2 h, 2.5 µM, mean ± sd
Method: as §1

iBMECs 71Q = assay: Receptor-mediated transcytosis of fluorescent transferrin, iBMEC 71Q; type: in vitro ADME, human; details: for Transferrin transported: 71Q, basal compartment after 2 h, 2.5 µM, mean ± sd
Method: as §1

iBMEC_71Q [11] = assay: TNFα treatment, inflammatory gene expression (qRT-PCR), iBMEC_71Q; type: cell-based, human; details: 50 ng/mL TNFα, 48 h, versus untreated cells
Method: (§2) To evaluate the self-renewal capacity and the pluripotency as well as the trilineage differentiation potential, mRNA was subjected to the hPSC scorecard assay (Cat. A15872, Thermo Fisher, Monza, Italy) after RNA extraction from iPSC colonies with RNeasy mini kit (Cat. 74106, Qiagen, Hilden, Germany). cDNA was obtained with High-capacity cDNA reverse transcription kit (Cat. 4374966, Thermo Fisher, Monza, Italy). The expression of inflammatory genes after TNFα treatment was evaluated using the TaqMan™ Array Human Inflammation Panel (Cat. 4378722, Applied Biosystem, Foster City, CA, USA). qRT-PCR was performed in QuantStudio 12 K Flex (Thermo Fisher, Monza, Italy). The analysis of the hPSC score was conducted with the hPSC Score Card Panel software.
(§3) To mimic a neuroinflammatory condition, cells in transwells were treated with 50 ng/mL of TNFα for 48 h before RNA extraction.

iBMEC_109Q [12] = assay: TNFα treatment, inflammatory gene expression (qRT-PCR), iBMEC_109Q; type: cell-based, human; details: 50 ng/mL TNFα, 48 h, versus untreated cells
Method: as §2, §3

iBMEC_33Q [13] = assay: TNFα treatment, inflammatory gene expression (qRT-PCR), iBMEC_33Q; type: cell-based, human; details: 50 ng/mL TNFα, 48 h, versus untreated cells
Method: as §2, §3

[14] = tested on: rat cerebral microcirculation; details: cited from earlier work
GLUT = assay: in vitro; details: female, human

Molecule: CC(NC(C)(C)C)C(=O)c1cccc(Cl)c1 (stereo not drawn) [bupropion]
Human Kp,uu,CSF [1]: 1.11

Papp [2]: 0.11 ± 0.01 ×10⁻⁶ cm/s | Papp [3]: 0.8 ± 0.01 ×10⁻⁶ cm/s | Papp [4]: 0.24 ± 0.02 ×10⁻⁶ cm/s
Molecule: O=C1OC2(c3ccc(O)cc3Oc3cc(O)ccc32)c2ccccc21 [fluorescein]

Molecule: N[C@@H](Cc1ccc(O)c(O)c1)C(=O)O [L-DOPA]
Human Kp,uu,CSF [1]: 0.49

Permeability iBMEC_33Q (iBMEC_33Q [5]): 53.8 ± 6.7 ×10^−6 cm/s | Permeability iBMEC_71Q (iBMEC_71Q [6]): 53.2 ± 3.6 ×10^−6 cm/s | Permeability iBMEC_109Q (iBMEC_109Q [7]): 52.6 ± 5.7 ×10^−6 cm/s
Molecule: CC(O)C(=O)O (stereo not drawn) [lactate]

Molecule: O=C(CCc1ccc(O)cc1)c1c(O)cc(O)cc1O [phloretin]
inhibition at 200 µM (all iBMECs; Homo sapiens, 200 µM phloretin, both directions (apical to basal and basal to apical), all iBMECs, read-out: Inhibition of glucose transport): 50 to 60%

Molecule: NC(=O)N1c2ccccc2C=Cc2ccccc21 [carbamazepine]
Human Kp,uu,CSF [1]: 0.24

Efflux Ratio (iBMEC_33Q [8]; 33Q, no inhibitor): 1.8 | Permeability A-B (iBMEC_33Q [8]; 33Q, no inhibitor, mean ± SD): 4.1 ± 0.2 ×10^−6 cm/s | Permeability B-A (iBMEC_33Q [8]; 33Q, no inhibitor, mean ± SD): 7.5 ± 0.5 ×10^−6 cm/s | Permeability iBMEC_33Q (iBMEC_33Q [8]): 4.1 ± 0.2 ×10^−6 cm/s | Efflux Ratio (iBMEC_109Q [9]; 109Q, no inhibitor): 1.3 | Permeability A-B (iBMEC_109Q [9]; 109Q, no inhibitor, mean ± SD): 7.2 ± 0.7 ×10^−6 cm/s | Permeability B-A (iBMEC_109Q [9]; 109Q, no inhibitor, mean ± SD): 9.0 ± 0.5 ×10^−6 cm/s | Permeability iBMEC_109Q (iBMEC_109Q [9]): 7.2 ± 0.7 ×10^−6 cm/s | Efflux Ratio (iBMEC_71Q [10]; 71Q, no inhibitor): 2.0 | Permeability A-B (iBMEC_71Q [10]; 71Q, no inhibitor, mean ± SD): 3.3 ± 0.1 ×10^−6 cm/s | Permeability B-A (iBMEC_71Q [10]; 71Q, no inhibitor, mean ± SD): 6.8 ± 0.6 ×10^−6 cm/s | Permeability iBMEC_71Q (iBMEC_71Q [10]): 3.3 ± 0.1 ×10^−6 cm/s
Molecule: N[C@@H](CCC(=O)O)C(=O)O [glutamate]

Molecule: CN(Cc1cnc2nc(N)nc(N)c2n1)c1ccc(C(=O)N[C@@H](CCC(=O)O)C(=O)O)cc1 [methotrexate]
Human Kp,uu,CSF [1]: 0.02

Molecule: O=C(O)c1cc(=O)c2ccccc2[nH]1 [KYNA, kynurenic acid]
Human Kp,uu,CSF [1]: 0.024

Papp [2]: 18.6 ± 0.2 ×10⁻⁶ cm/s | Papp [3]: 27.7 ± 1.5 ×10⁻⁶ cm/s | Papp [4]: 20.9 ± 1 ×10⁻⁶ cm/s
Molecule: O=C1NC(=O)C(c2ccccc2)(c2ccccc2)N1 [phenytoin]
Human Kp,uu,CSF [1]: 0.19

Molecule: Transferrin: Transferrin from Human Serum, Alexa Fluor 594 Conjugate
Transferrin transported (iBMECs 33Q; 4°C): 2.8 ± 0.4 ng | Transferrin transported (iBMECs 33Q; 37°C): 4.1 ± 0.7 ng | Transferrin transported (iBMECs 109Q; 4°C): 4.0 ± 1.0 ng | Transferrin transported (iBMECs 109Q; 37°C): 49.0 ± 13.0 ng | Higher level of basal accumulation of transferrin (iBMECs 109Q; iBMEC_109Q versus healthy model): about 5 fold | Transferrin transported (iBMECs 71Q; 4°C): 3.7 ± 0.3 ng | Transferrin transported (iBMECs 71Q; 37°C): 7.3 ± 0.4 ng | Higher level of basal accumulation of transferrin (iBMECs 71Q; iBMEC_71Q versus healthy model): ~2 fold

Molecule: TNFα
Upregulation of ICAM-1 expression after TNFα treatment (iBMEC_71Q [11]; 71Q): about 2 fold | Upregulation of VCAM1 expression after TNFα treatment (iBMEC_71Q [11]; iBMEC 71Q): more than 40 fold | Upregulation of ICAM-1 expression after TNFα treatment (iBMEC_109Q [12]; 109Q): about 2 fold | Upregulation of VCAM1 expression after TNFα treatment (iBMEC_109Q [12]; iBMEC_109Q): none | Upregulation of ICAM-1 expression after TNFα treatment (iBMEC_33Q [13]; 33Q): 9 fold | Upregulation of VCAM1 expression after TNFα treatment (iBMEC_33Q [13]; iBMEC 33Q): more than 40 fold

Efflux Ratio (iBMEC_33Q [5]): 0.9 | LY permeability, time course (iBMEC_33Q [5]): ≥ 0.5 ×10⁻⁶ cm/s | Permeability A-B (iBMEC_33Q [5]): 0.23 ± 0.02 ×10^−6 cm/s | Permeability B-A (iBMEC_33Q [5]): 0.21 ± 0.04 ×10^−6 cm/s | Permeability iBMEC_33Q, paracellular markers (iBMEC_33Q [5]): 2.3 ± 0.2 x10^-7 cm/s | Efflux Ratio (iBMEC_71Q [6]): 0.9 | LY permeability, time course (iBMEC_71Q [6]): ≥ 0.5 ×10⁻⁶ cm/s | Permeability A-B (iBMEC_71Q [6]): 0.37 ± 0.03 ×10^−6 cm/s | Permeability B-A (iBMEC_71Q [6]): 0.34 ± 0.06 ×10^−6 cm/s | Permeability iBMEC_71Q, paracellular markers (iBMEC_71Q [6]): 3.7 ± 0.3 x10^-7 cm/s | Efflux Ratio (iBMEC_109Q [7]): 1.0 | LY permeability, time course (iBMEC_109Q [7]): exceeded 5 × 10^−7 cm/s | Permeability A-B (iBMEC_109Q [7]): 0.70 ± 0.03 ×10^−6 cm/s | Permeability B-A (iBMEC_109Q [7]): 0.70 ± 0.1 ×10^−6 cm/s | Permeability iBMEC_109Q, paracellular markers (iBMEC_109Q [7]): 7.0 ± 0.3 x10^-7 cm/s
Molecule: lucifer yellow
Permeability P in vivo [14]: 1 − 2 × 10^−7 cm/s

Papp [2]: 25.8 ± 1.5 ×10⁻⁶ cm/s | Papp [3]: 30.4 ± 3 ×10⁻⁶ cm/s | Papp [4]: 21.4 ± 1.4 ×10⁻⁶ cm/s
Molecule: N[C@@H](Cc1ccccc1)C(=O)O [phenylalanine]
Human Kp,uu,CSF [1]: 0.28

Molecule: Cn1c(=O)c2c(ncn2C)n(C)c1=O [caffeine]
Human Kp,uu,CSF [1]: 1.00

Papp A→B (GLUT): 6.3 ×10⁻⁶ cm/s
Molecule: OC[C@H]1OC(O)[C@H](O)[C@@H](O)[C@@H]1O (stereo partly drawn) [glucose]
Human Kp,uu,CSF [1]: 0.65

Molecule: CN(C)CCCC1(c2ccc(F)cc2)OCc2cc(C#N)ccc21 (stereo not drawn) [citalopram]
Human Kp,uu,CSF [1]: 1.77

Molecule: [D-Ala2]deltorphin-II
Permeability iBMEC_33Q (iBMEC_33Q [8]): 0.77 ± 0.08 ×10^−6 cm/s | Permeability iBMEC_109Q (iBMEC_109Q [9]): 1.01 ± 0.02 ×10^−6 cm/s | Permeability iBMEC_71Q (iBMEC_71Q [10]): 0.92 ± 0.01 ×10^−6 cm/s

Molecule: Nc1cc(COc2c(Cl)cc(C[C@H](N)C(=O)O)cc2Cl)c2oc(-c3ccccc3)nc2c1 [JPH203]
Reduction of leucine transport (all iBMECs; 10 µM JPH203, all models): about 80%

Molecule: CC(C)C[C@H](N)C(=O)O [leucine]
Human Kp,uu,CSF [1]: 0.12

Molecule: N=C(N)NCCC[C@H](N)C(=O)O [arginine]
Human Kp,uu,CSF [1]: 0.28
